Source: PubChem BioAssay AID2060912 (Molecular Pharmacology Branch, DTP, NCI, 2025)

System: HUVEC/MSC spheroids viability
Assay: Human HUVEC/MSC cell line growth inhibition [KRAS2];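 for viability, T/C: percent of DMSO vehicle control luminescence so 100% = untreated viability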
Settings: for IC50: curve of first compound; for viability, T/C: stronger effect = lower value
Source text: Multicellular complex tumor spheroid response to RAS pathway inhibitors in combination with a targeted agents in patient-derived cell lines with oncogenic KRAS variants from multiple cancer types
A high-throughput screen of multi-cell type tumor spheroids was designed to identify active combinations of targeted small molecules and KRAS pathway inhibitors. Complex spheroids include a stromal component modeled by human endothelial cells (HUVEC) and fibroblasts modeled by human mesenchymal stem cells (MSCs). The concentration ranges selected for each drug and investigational agent were based upon clinically achievable concentrations if the clinical Cmax of the agent was known. * [This particular assayID is a followup dataset requested by reviewers of the manuscript. It is a test of the HUVEC and MSC without the tumor cells, and was conducted using different drug plates and a different plate layout.]
Compounds. The drugs and investigational agents: BI-3406 (NSC825286), BAY-293 (NSC824723), batoprotafib (TNO155; NSC825523), sotorasib (AMG 510; NSC818433), MRTX1257 (NSC819558), elimusertib (BAY 1895344; NSC800525), molibresib (GSK525762; NSC774829), temuterkib (LY3214996; NSC803410), venetoclax (NSC766270), alisertib (NSC759677), olaparib (NSC753686), talazoparib (NSC767125), erdafitinib (NSC781556), ipatasertib (NSC767898), cabozantinib (NSC761068), nintedanib (NSC756659), abemaciclib (NSC768073), docetaxel (NSC628503), trametinib (NSC758246), and sapanisertib (NSC764658) were obtained from the National Cancer Institute (NCI) Developmental Therapeutics Program Chemical Repository. The FDA-approved anticancer drug set is available from the Developmental Therapeutics Program. […] The stock solutions were prepared in dimethyl sulfoxide (DMSO, Sigma-Aldrich, St. Louis, MO, cat. D2650) at 800-fold the tested concentration and stored at -70 degrees C prior to their use. All drugs and investigational agents were tested over a range starting from a high concentration at or near the clinical Cmax and decreasing in half-log increments. If the clinical Cmax for an agent had not been determined, the highest concentration tested was 10 microM.
Cell Culture. All cells were maintained in an incubator at 37 degrees C and 5% CO2 with 95% humidity. The PDC lines were cultured according to standard operating procedures established by the NCI PDMR (https://pdmr.cancer.gov/sops/default.htm). Briefly, all PDCs were thawed and cultured in Matrigel-coated flasks prepared with a working solution of 1X Ham's F-12 nutrient mix, without supplementation (Invitrogen, Waltham, MA, cat. 11765054), 100 U/mL penicillin-streptomycin (Invitrogen, cat. 15140122), and 2.5% Matrigel (Corning Inc., Corning, NY, cat. 354248) for the first three passages. All PDCs were cultured in complete DMEM/F-12 media containing advanced DMEM/F-12 (Invitrogen, cat. 12634028), 4.9% defined fetal bovine serum, heat inactivated (HyClone Laboratories Inc., Logan, UT, cat. SH30070.03HI), 389 ng/mL hydrocortisone (Sigma-Aldrich, cat. H4001), 9.7 ng/mL human EGF recombinant protein (Invitrogen, cat. PHG0313), 23.4 microg/mL adenine (Sigma-Aldrich, cat. A2786), 97.3 U/mL penicillin-streptomycin (Invitrogen, cat. 15140122), 1.9 mM L-glutamine (Invitrogen, cat. 25030081), and 9.7 microM Y-27632 dihydrochloride (Tocris Bioscience, Bristol, United Kingdom, cat. 1254). The PDCs were cultured in complete DMEM/F12 media without 9.7 microM Y-27632 dihydrochloride for at least two passages prior to the screen. The established cell line HOP-62 was cultured in RPMI 1640 medium, HEPES (Invitrogen, cat. 22400105) with 10% defined fetal bovine serum (HyClone Laboratories Inc., cat. SH30070.03) and 2 mM L-glutamine (Invitrogen, cat. 25030081). The pooled donor HUVEC were cultured in endothelial cell growth medium 2 (PromoCell, Heidelberg, Germany, cat. C-22011) and the hMSC were cultured in mesenchymal stem cell growth medium 2 (PromoCell, cat. C-28009). […]

[1] = second compound 0.0316 µM, first compound 0.0316 µM
[2] = second compound 0.0316 µM, first compound 0.1 µM
[3] = second compound 0.1 µM, first compound 0.0316 µM
[4] = second compound 0.1 µM, first compound 0.1 µM
[5] = second compound 0.316 µM, first compound 0.0316 µM
[6] = second compound 0.316 µM, first compound 0.1 µM
[7] = second compound 1 µM, first compound 0.0316 µM
[8] = second compound 1 µM, first compound 0.1 µM
[9] = second compound 3.16 µM, first compound 0.0316 µM
[10] = second compound 3.16 µM, first compound 0.1 µM
[11] = second compound 10 µM, first compound 0.0316 µM
[12] = second compound 10 µM, first compound 0.1 µM

## COc1cc(Nc2ncc3c(n2)-c2ccc(Cl)cc2C(c2c(F)cccc2OC)=NC3)ccc1C(=O)O + COc1cc2nc(C)nc(NC(C)c3cc(N)cc(C(F)(F)F)c3)c2cc1OC1CCOC1
Second compound 0.0316 µM
  IC50: > 10 µM
Second compound 0.1 µM
  IC50: > 10 µM
Second compound 0.316 µM
  IC50: 9.25 µM
Second compound 1 µM
  IC50: > 10 µM
Second compound 3.16 µM
  IC50: 9.65 µM
Second compound 10 µM
  IC50: 8.57 µM
[1]
  viability, T/C: 79.5%
[2]
  viability, T/C: 94.3%
Second compound 0.0316 µM, first compound 0.316 µM
  viability, T/C: 109%
Second compound 0.0316 µM, first compound 1 µM
  viability, T/C: 82.5%
Second compound 0.0316 µM, first compound 3.16 µM
  viability, T/C: 111%
Second compound 0.0316 µM, first compound 10 µM
  viability, T/C: 61.6%
[3]
  viability, T/C: 95.5%
[4]
  viability, T/C: 89.7%
Second compound 0.1 µM, first compound 0.316 µM
  viability, T/C: 105%
Second compound 0.1 µM, first compound 1 µM
  viability, T/C: 85.8%
Second compound 0.1 µM, first compound 3.16 µM
  viability, T/C: 97%
Second compound 0.1 µM, first compound 10 µM
  viability, T/C: 58.8%
[5]
  viability, T/C: 87.8%
[6]
  viability, T/C: 97.1%
Second compound 0.316 µM, first compound 0.316 µM
  viability, T/C: 92.5%
Second compound 0.316 µM, first compound 1 µM
  viability, T/C: 105%
Second compound 0.316 µM, first compound 3.16 µM
  viability, T/C: 104%
Second compound 0.316 µM, first compound 10 µM
  viability, T/C: 46.5%
[7]
  viability, T/C: 86.9%
[8]
  viability, T/C: 89.5%
Second compound 1 µM, first compound 0.316 µM
  viability, T/C: 96.8%
Second compound 1 µM, first compound 1 µM
  viability, T/C: 106%
Second compound 1 µM, first compound 3.16 µM
  viability, T/C: 107%
Second compound 1 µM, first compound 10 µM
  viability, T/C: 52.7%
[9]
  viability, T/C: 77.4%
[10]
  viability, T/C: 94.8%
Second compound 3.16 µM, first compound 0.316 µM
  viability, T/C: 102%
Second compound 3.16 µM, first compound 1 µM
  viability, T/C: 77%
Second compound 3.16 µM, first compound 3.16 µM
  viability, T/C: 102%
Second compound 3.16 µM, first compound 10 µM
  viability, T/C: 48.7%
[11]
  viability, T/C: 62.5%
[12]
  viability, T/C: 85.8%
Second compound 10 µM, first compound 0.316 µM
  viability, T/C: 72.5%
Second compound 10 µM, first compound 1 µM
  viability, T/C: 84.9%
Second compound 10 µM, first compound 3.16 µM
  viability, T/C: 74.9%
Second compound 10 µM, first compound 10 µM
  viability, T/C: 46.1%

## CN(C)C/C=C/C(=O)Nc1cc2c(Nc3ccc(F)c(Cl)c3)ncnc2cc1O[C@H]1CCOC1 + CC1OCC2(CCN(c3cnc(Sc4ccnc(N)c4Cl)c(N)n3)CC2)C1N
Second compound 0.0316 µM
  IC50: > 0.1 µM
Second compound 0.1 µM
  IC50: > 0.1 µM
Second compound 0.316 µM
  IC50: > 0.1 µM
Second compound 1 µM
  IC50: > 0.1 µM
Second compound 3.16 µM
  IC50: > 0.1 µM
Second compound 10 µM
  IC50: > 0.1 µM
Second compound 0.0316 µM, first compound 0.000316 µM
  viability, T/C: 110%
Second compound 0.0316 µM, first compound 0.001 µM
  viability, T/C: 123%
Second compound 0.0316 µM, first compound 0.00316 µM
  viability, T/C: 121%
Second compound 0.0316 µM, first compound 0.01 µM
  viability, T/C: 103%
[1]
  viability, T/C: 99.1%
[2]
  viability, T/C: 117%
Second compound 0.1 µM, first compound 0.000316 µM
  viability, T/C: 108%
Second compound 0.1 µM, first compound 0.001 µM
  viability, T/C: 148%
Second compound 0.1 µM, first compound 0.00316 µM
  viability, T/C: 105%
Second compound 0.1 µM, first compound 0.01 µM
  viability, T/C: 110%
[3]
  viability, T/C: 98.7%
[4]
  viability, T/C: 126%
Second compound 0.316 µM, first compound 0.000316 µM
  viability, T/C: 108%
Second compound 0.316 µM, first compound 0.001 µM
  viability, T/C: 114%
Second compound 0.316 µM, first compound 0.00316 µM
  viability, T/C: 99.4%
Second compound 0.316 µM, first compound 0.01 µM
  viability, T/C: 99.3%
[5]
  viability, T/C: 101%
[6]
  viability, T/C: 126%
Second compound 1 µM, first compound 0.000316 µM
  viability, T/C: 92.6%
Second compound 1 µM, first compound 0.001 µM
  viability, T/C: 118%
Second compound 1 µM, first compound 0.00316 µM
  viability, T/C: 106%
Second compound 1 µM, first compound 0.01 µM
  viability, T/C: 86.8%
[7]
  viability, T/C: 102%
[8]
  viability, T/C: 108%
Second compound 3.16 µM, first compound 0.000316 µM
  viability, T/C: 79.7%
Second compound 3.16 µM, first compound 0.001 µM
  viability, T/C: 96.2%
Second compound 3.16 µM, first compound 0.00316 µM
  viability, T/C: 77.9%
Second compound 3.16 µM, first compound 0.01 µM
  viability, T/C: 94.1%
[9]
  viability, T/C: 89.2%
[10]
  viability, T/C: 103%
Second compound 10 µM, first compound 0.000316 µM
  viability, T/C: 71.7%
Second compound 10 µM, first compound 0.001 µM
  viability, T/C: 85.9%
Second compound 10 µM, first compound 0.00316 µM
  viability, T/C: 66.5%
Second compound 10 µM, first compound 0.01 µM
  viability, T/C: 66.3%
[11]
  viability, T/C: 80.9%
[12]
  viability, T/C: 89.3%
